The target of this experiment is erythrocyte KCa3.1 channels (Homo sapiens (Human), UniProt O15554). Description: Erythrocyte KCa3.1 assay. It counts as cell-based. The settings on record: human erythrocytes, A23187-activated KCa3.1; read-out: RBC K (in vitro) Human IC50 (μM) Potency category. Here is the method: Human blood was drawn from healthy human volunteers in a standard heparinized blood sampling vial (Vacutainer, Li/heparin, ED Bioscience, Plymouth, UK). The erythrocytes were packed by centrifugation, and the plasma and buffy coat were removed by aspiration. Erythrocytes were washed three times in the experimental salt solution and then stored at 0° C. until use. Blood samples from NMRI mice or from Wistar rats were treated similarly. The methodological principle is outlined in Macey et al. (1978) and further described in Strøbaek et al. (2013). Activation of the erythrocyte KCa3.1 channels were obtained by addition of the Ca^2+ ionophore A23187, which causes synchronized hyperpolarization, which is reported as a CCCP-mediated shift in the unbuffered extracellular pH of the erythrocyte suspension. Standard procedure: 3 mL unbuffered experimental salt solution (in mM: 2 KCl, 154 NaCl, 0.05 CaCl2) was heated to 37° C. with stirring. Packed erythrocytes were added (50 μL, final cytocrit 1.5%), and the extracellular pH (pHo) followed with a glass/calomel (pHG200-8/REF200, Radiometer, Denmark) electrode pair. CCCP (3 μL, final concentration 20 μM) was added followed by varying concentrations of test compounds (DMSO concentration constant). After pH stabilization at ˜7.2, A23187 (3 μL, final concentration 0.33 μM) was added to initiate the experiment. After the peak hyperpolarization was attained, the intracellular pH (pHi constant during the experiment) was found by haemolysing the erythrocytes via addition of 100 μL of Triton-X100.
The erythrocyte membrane potential, Vm, was calculated according to: […]
and the fractional remaining Ca^2+-activated K^+-conductance at the concentration C of blocker, fGK(C), was calculated from
where the K^+ equilibrium potential EK=−107 mV, the Cl^− equilibrium potential ECl=−12 mV and the Vm(0) and Vm(C) are the peak hyperpolarizations in the control and in the presence of a concentration of C of blocker respectively.
IC50 values for compounds were calculated from a plot of fGK(C) versus C by a fit to the Hill equation, using a custom program written in the IGOR-Pro software (WaveMetrics, Lake Oswego, OR, USA). All IC50-values are reported in μM.
One may read the IC50 as the midpoint of a concentration-inhibition curve. Regarding `FC(F)(F)Oc1cccc(C2(NC[C@H]3CCCN3)CCC2)c1` [N-{[(2R)-pyrrolidin-2-yl]methyl}-1-[3-(trifluoromethoxy)phenyl]cyclobutan-1-amine], the IC50 is under 1 µM. For `COC(=O)N(CC(C)(C)N)C1(c2ccc(F)c(C(F)(F)F)c2)CCC1` [methyl N-(2-amino-2-methylpropyl)-N-{1-[4-fluoro-3-(trifluoromethyl)phenyl]cyclobutyl}carbamate] the value was under 0.3 µM; for `Fc1cc(C(F)(F)F)cc(C2(NC[C@H]3CCCN3)CCC2)c1` [1-[3-fluoro-5-(trifluoromethyl)phenyl]-N-{[(2R)-pyrrolidin-2-yl]methyl}cyclobutan-1-amine], under 1 µM. The figure for `Fc1ccc(C2(NC[C@@H]3CCCN3)CCC2)cc1C1CC1` [1-(3-cyclopropyl-4-fluorophenyl)-N-{[(2S)-pyrrolidin-2-yl]methyl}cyclobutan-1-amine] is under 1 µM; for `Fc1ccc(C2(NC[C@H]3CCCN3)CCC2)cc1C(F)(F)F` [1-[4-fluoro-3-(trifluoromethyl)phenyl]-N-{[(2R)-pyrrolidin-2-yl]methyl}cyclobutan-1-amine] it is under 1 µM. Take `COC(=O)N(C[C@H]1CCCN1)C1(c2cc(F)cc(C(F)(F)F)c2)CCC1` [Methyl N-{1-[3-fluoro-5-(trifluoromethyl)phenyl]cyclobutyl}-N-{[(2R)-pyrrolidin-2-yl]methyl}carbamate]: the IC50 was under 0.3 µM. As for `FC(F)(F)c1cccc(C2(NC[C@@H]3CCCN3)CCC2)c1` [N-{[(2S)-pyrrolidin-2-yl]methyl}-1-[3-(trifluoromethyl)phenyl]cyclobutan-1-amine], the IC50 was under 1 µM.

For the compound `COC(=O)N(C[C@@H]1CCCN1)C1(c2cccc(Cl)c2)CCC1` [Methyl N-[1-(3-chlorophenyl)cyclobutyl]-N-{[(2S)-pyrrolidin-2-yl]methyl}carbamate], the IC50 was under 0.3 µM. Take `COC(=O)N(C1CNC1)C1(c2ccc(F)c(C(F)(F)F)c2)CC1` [Methyl azetidin-3-yl(1-(4-fluoro-3-(trifluoromethyl)phenyl)cyclopropyl)carbamate]: the IC50 is under 1 µM.

With `COC(=O)N(CC(C)(C)N)C1(c2cc(Cl)ccc2F)CCC1` [Methyl N-(2-amino-2-methylpropyl)-N-[1-(5-chloro-2-fluorophenyl)cyclobutyl]carbamate], the IC50 was under 1 µM. The figure for `COC(=O)N(CC(C)(C)N)C1(c2cc(F)cc(C(F)(F)F)c2)CCC1` [Methyl N-(2-amino-2-methylpropyl)-N-{1-[3-fluoro-5-(trifluoromethyl)phenyl]cyclobutyl}carbamate] is under 0.3 µM; for `Fc1ccc(C2(NC[C@@H]3CCCN3)CCC2)cc1C(F)(F)F` [1-[4-fluoro-3-(trifluoromethyl)phenyl]-N-{[(2S)-pyrrolidin-2-yl]methyl}cyclobutan-1-amine] it is under 0.3 µM; for `COC(=O)N(C[C@@H]1COCCN1)C1(c2ccc(F)c(C(F)(F)F)c2)CC1` [Methyl (R)-(1-(4-fluoro-3-(trifluoromethyl)phenyl)cyclopropyl)(morpholin-3-ylmethyl) carbamate] it is under 1 µM. Consider `COC(=O)N(C[C@@H]1CCCN1)C1(c2cc(C(F)(F)F)ccc2F)CCC1` [Methyl N-{1-[2-fluoro-5-(trifluoromethyl)phenyl]cyclobutyl}-N-{[(2S)-pyrrolidin-2-yl]methyl}carbamate], for which the IC50 is under 1 µM.

As for `COC(=O)N(C[C@@H]1CCCN1)C1(c2cccc(OC(F)(F)F)c2)CCC1` [Methyl N-{[(2S)-pyrrolidin-2-yl]methyl}-N-{1-[3-(trifluoromethoxy)phenyl]cyclobutyl}carbamate], the half-inhibitory concentration (IC50) is under 0.3 µM. Consider `COC(=O)N(CC(C)(C)N)C1(c2cccc(OC(F)(F)F)c2)CCC1` [Methyl N-(2-amino-2-methylpropyl)-N-{1-[3-(trifluoromethoxy)phenyl]cyclobutyl}carbamate], for which the IC50 is under 0.3 µM. Consider `O=C(OCC1CC1)N(C[C@@H]1CCCN1)C1(c2ccc(F)c(C(F)(F)F)c2)CC1` [Cyclopropylmethyl (S)-(1-(4-fluoro-3-(trifluoromethyl)phenyl)cyclopropyl)(pyrrolidin-2-ylmethyl)carbamate], for which the IC50 is under 0.3 µM. Regarding `COC(=O)N(C[C@@H]1CCCN1)C1(c2cccc(C(F)(F)F)c2)CCC1` [methyl N-{[(2S)-pyrrolidin-2-yl]methyl}-N-{1-[3-(trifluoromethyl)phenyl]cyclobutyl}carbamate], the IC50 is under 0.3 µM.

Regarding `COC(=O)N(CC(C)(C)N)C1(c2cccc(C(F)(F)F)c2)CCC1` [methyl N-(2-amino-2-methylpropyl)-N-{1-[3-(trifluoromethyl)phenyl]cyclobutyl}carbamate], the IC50 is under 0.3 µM. Turning to `COC(=O)N(C[C@H]1CCCN1)C1(c2cccc(Cl)c2)CCC1` [Methyl N-[1-(3-chlorophenyl)cyclobutyl]-N-{[(2R)-pyrrolidin-2-yl]methyl}carbamate], the IC50 is under 0.3 µM. The figure for `CC(C)(N)CNC1(c2cccc(C(F)(F)F)c2)CCC1` [2-methyl-N1-{1-[3-(trifluoromethyl)phenyl]cyclobutyl}propane-1,2-diamine] is under 0.3 µM; for `CC(C)(N)CN(C1CCC1)C1(c2cccc(C(F)(F)F)c2)CC1` [N1-cyclobutyl-2-methyl-N1-(1-(3-(trifluoromethyl)phenyl)cyclopropyl)propane-1,2-diamine] it is under 0.3 µM. For `CS(=O)(=O)N(C[C@H]1CCCN1)C1(c2ccc(F)c(C(F)(F)F)c2)CC1` [(R)-N-(1-(4-fluoro-3-(trifluoromethyl)phenyl)cyclopropyl)-N-(pyrrolidin-2-ylmethyl) methane sulfonamide] the value was under 1 µM. The figure for `COC(=O)N(C[C@@H]1CCCN1)C1(c2ccc(F)c(C(F)(F)F)c2)CCC1` [methyl N-{1-[4-fluoro-3-(trifluoromethyl)phenyl]cyclobutyl}-N-{[(2S)-pyrrolidin-2-yl]methyl}carbamate] is under 0.3 µM; for `Fc1ccc(C2(NC[C@H]3CCCN3)CCC2)cc1C1CC1` [1-(3-cyclopropyl-4-fluorophenyl)-N-{[(2R)-pyrrolidin-2-yl]methyl}cyclobutan-1-amine] it is under 1 µM; for `COC(=O)N(C[C@@H]1CCCN1)C1(c2cc(Cl)ccc2F)CCC1` [Methyl N-[1-(5-chloro-2-fluorophenyl)cyclobutyl]-N-{[(2S)-pyrrolidin-2-yl]methyl}carbamate] it is under 1 µM. With `CC(C)(N)CNC1(c2cccc(Cl)c2)CCC1` [N1-[1-(3-chlorophenyl)cyclobutyl]-2-methylpropane-1,2-diamine], the IC50 is under 0.3 µM.

Take `CS(=O)(=O)N(CC1(N)CC1)C1(c2ccc(F)c(C(F)(F)F)c2)CC1` [N-((1-aminocyclopropyl)methyl)-N-(1-(4-fluoro-3-(trifluoromethyl)-phenyl)cyclopropyl)methanesulfonamide]: the IC50 was under 1 µM. For `FC(F)(F)Oc1cccc(C2(NC[C@@H]3CCCN3)CCC2)c1` [N-{[(2S)-pyrrolidin-2-yl]methyl}-1-[3-(trifluoromethoxy)phenyl]cyclobutan-1-amine], the IC50 was under 1 µM. `COC(=O)N(C[C@@H]1CCCN1)C1(c2cc(F)cc(C(F)(F)F)c2)CCC1` [Methyl N-{1-[3-fluoro-5-(trifluoromethyl)phenyl]cyclobutyl}-N-{[(2S)-pyrrolidin-2-yl]methyl}carbamate]: the IC50 was under 0.3 µM. Take `COC(=O)N(C[C@H]1CCCN1)C1(c2cccc(OC(F)(F)F)c2)CCC1` [Methyl N-{[(2R)-pyrrolidin-2-yl]methyl}-N-{1-[3-(trifluoromethoxy)phenyl]cyclobutyl}carbamate]: the IC50 is under 0.3 µM. The figure for `COC(=O)N(C[C@@H]1COCCN1C)C1(c2ccc(F)c(C(F)(F)F)c2)CC1` [Methyl (R)-(1-(4-fluoro-3-(trifluoromethyl)phenyl)cyclopropyl)((4-methylmorpholin-3-yl)methyl)carbamate] is under 0.3 µM; for `COC(=O)N(C[C@H]1CCCN1)C1(c2cccc(C(F)(F)F)c2)CCC1` [methyl N-{[(2R)-pyrrolidin-2-yl]methyl}-N-{1-[3-(trifluoromethyl)phenyl]cyclobutyl}carbamate] it is under 0.3 µM; for `FC(F)(F)c1cccc(C2(NC[C@H]3CCCN3)CCC2)c1` [N-{[(2R)-pyrrolidin-2-yl]methyl}-1-[3-(trifluoromethyl)phenyl]cyclobutan-1-amine] it is under 1 µM.

For the compound `COC(=O)N(CCN)C1(c2ccc(F)c(C(F)(F)F)c2)CC1` [Methyl (2-aminoethyl)(1-(4-fluoro-3-(trifluoromethyl)phenyl)cyclopropyl)carbamate], the IC50 was under 1 µM.
